Bounds are passed on as bounds.

Holding throughout (format): cell-based, Streptomyces coelicolor
Experiment [1] has as its system S. coelicolor M145 ΔvanX (LAG3). Briefly: MIC of vancomycin on MM agar plates with added D-Ala. The following applies: M145 ΔvanX, 1000-fold lower D-Ala concentration than for M145. The source says:
VanX effectively eradicates the D-Ala-D-Ala dipeptide, thereby counteracting the accumulation of wild-type precursors and supporting vancomycin resistance (Lessard and Walsh, 1999; Tan et al., 2002). Therefore, a vanX null mutant was created using a similar strategy as for ddl, replacing the coding region of vanX by the apramycin resistance cassette aacC4. The mutant was created in both the parental strain S. coelicolor M145 and in its ddl suppressor mutant LAG2, generating LAG3 (M145 ΔvanX) and LAG4 (M145 Δddl ΔvanX vanS::IS466A), respectively.
LAG4 produced 20% wt precursors prior to the addition of D-Ala.
(§1) Escherichia coli strains JM109 (Sambrook et al., 1989) and ET12567 (Kieser et al., 2000) were used for routine cloning procedures and for extracting non-methylated DNA, respectively. Cells of E. coli were grown in Luria-Berani broth (LB) at 37° C. Streptomyces coelicolor A3(2) M145 was the parent of all mutants described in this work. All media and routine Streptomyces techniques were carried out as described (Kieser et al., 2000). SFM (soy flour mannitol) agar plates were used for propagating S. coelicolor strains and to prepare spore suspensions. For liquid-grown cultures, S. coelicolor mycelia were grown in normal minimal media with phosphate (NMMP) supplemented with 1% (w/v) mannitol as the sole carbon source. The MIC of vancomycin against S. coelicolor M145 and its mutant derivatives were determined by growth on minimal media (MM) agar plates supplemented with 1% mannitol as the sole carbon source, and 0, 2, 4, 8, 16, 32, 64, 128, 256 or 512 μg/ml vancomycin, in combination with 0, 1, 5, 10 or 50 mM of D-Ala or L-Ala. The vanX deletion mutants have been tested with 1, 5, 10, 50 and 100 μM D-Ala and L-Ala.

The subject of experiment [2] is S. coelicolor LAG4 (LAG2 ΔvanX). Description: LC-MS analysis of peptidoglycan precursors, time course after D-Ala addition. As for the experimental part: (§2) To investigate what the effect would be of the addition of excess of D-Ala on the accumulation of wild-type precursors, a time-course experiment was performed to follow the effect of D-Ala addition on the ratio between wild-type and resistant precursors. Therefore, 300 ml liquid-grown NMMP cultures were supplemented with either D-Ala or L-Ala (control) at 50 mM end concentration, and 10 ml samples were collected prior to and 1, 5, 15, 30, 60, 120 and 180 minutes after the addition of either alanine stereoisomer. Samples were immediately filtered by vacuum filtration, washed in 0.9% NaCl, biomass scraped off the filter, added to a tube containing 5% TCA and samples prepared as described above. […] However, addition of 50 mM D-Ala triggered the production of small amounts of wt precursor (1%) within 1 minute. After 15 minutes, this amount had increased to 4%, which appeared to be close to the maximum, with levels of wt precursors never exceeding 5%.
For the precursor isolation and identification, a modification of the method described previously by Hong and colleagues (Hong et al., 2004) was used. 10 μg vancomycin was added to the strains at the moment of inoculation. The strains were grown in NMMP (1% (w/v) Mannitol, 50 mM MgCl2) until mid-log phase (OD-0.3-0.4) and mycelia were harvested by centrifugation at 4° C. and washed in 0.9% NaCl. The mycelium was extracted with 5% cold trichloric acid (TCA) for 30 minutes at 4° C. This was centrifuged and the supernatant desalted on a Sephadex G-25 column (Illustra NAP-10 Columns, GE Healthcare, Pittsburgh), and concentrated by rotary evaporation. The concentrated precursors were dissolved in HPLC-grade water and separated by LC-MS using a gradient of 0-20% acetonitrile in water with 0.1% TFA. The elution was monitored at 254 nm and monitored by the sizes eluted (1193.8-1195.3). […]

Another experiment concerns S. coelicolor LAG2. Briefly: LC-MS analysis of peptidoglycan precursors, including time course after alanine addition. The procedure:
In order to get more insights into the synthesis of vancomycin-sensitive (i.e., wild-type) or the alternate vancomycin-resistant peptidoglycan, the pool of peptidoglycan precursors was analyzed by Liquid Chromatography coupled to Mass Spectrometry (LC-MS). When cells produce wild-type PG, only the MurNac-pentapeptide with a D-Ala-D-Ala terminus are detected, while vancomycin-resistant PG precursors have a D-Ala-D-Lac terminus. To analyze the precursors produced in S. coelicolor M145 and its mutant derivatives LAG1 (Δddl) and LAG2 (Δddl vanS::IS466A) in the presence or absence of vancomycin, the strains were grown until exponential phase, after which the cultures were harvested, washed and the precursors extracted with 5% TCA. The supernatants were desalted, concentrated and analyzed by LC-MS (see Materials and Methods section).
as §2
For the precursor isolation and identification, a modification of the method described previously by Hong and colleagues (Hong et al., 2004) was used. 10 μg vancomycin was added to the strains at the moment of inoculation. The strains were grown in NMMP (1% (w/v) Mannitol, 50 mM MgCl2) until mid-log phase (OD-0.3-0.4) and mycelia were harvested by centrifugation at 4° C. and washed in 0.9% NaCl. The mycelium was extracted with 5% cold trichloric acid (TCA) for 30 minutes at 4° C. This was centrifuged and the supernatant desalted on a Sephadex G-25 column (Illustra NAP-10 Columns, GE Healthcare, Pittsburgh), and concentrated by rotary evaporation. The concentrated precursors were dissolved in HPLC-grade water and separated by LC-MS using a gradient of 0-20% acetonitrile in water with 0.1% TFA. The elution was monitored at 254 nm and monitored by the sizes eluted (1193.8-1195.3).
For the measurement over time, the protocol was adjusted in the following way: 300 ml NMMP cultures were grown until exponential phase, at which point a 10 ml sample was taken (sample t=0) and 50 mM of D-Ala or L-Ala was added, followed by further sampling after 1, 5, 15, 30, 60, 120 and 180 minutes. Samples were rapidly filtered with a vacuum pump and washed with 0.9% (w/v) NaCl, mycelia scraped off the filter and transferred to 5% TCA.

Another experiment concerns S. coelicolor M145. Description: MIC of vancomycin on MM agar plates with added D-Ala or L-Ala. The following applies: M145, up to 50 mg/ml L-Ala (control). As for the experimental part: The naturally vancomycin-resistant model organism S. coelicolor M145 was used as the initial test system. The strain was grown on solid minimal medium (MM) agar plates with increasing amounts of D-Ala and vancomycin. D-Ala was thereby added in concentrations of 5, 10 and 50 mM and the effect on the MIC of vancomycin assessed. As a first control, L-Ala was added and, as a second control, no amino acids were added. […] This was not altered when the culture media were supplemented with up to 50 mg/ml L-Ala (Table 1 and FIG. 6).
as §1

The subject of experiment [3] is S. coelicolor LAG2 (ddl suppressor mutant). The description is as above. The note with it: LAG2, L-Ala (control). The procedure:
VanS is the sensory kinase of a two-component system formed with VanR, and it has been shown previously that certain mutations in vanS will constitutively upregulate the vancomycin resistance cluster, explaining the viability of strain LAG2 in the absence of vancomycin.
as §1

As for `C[C@@H](N)C(=O)O` [D-Ala, D-alanine], the “stronger reduction of the MIC of vancomycin as compared to M145” value in experiment [1] is 4 fold. The wild-type precursor in experiment [2] (LAG4, 3 hours after addition of D-Ala) is 80%; in experiment [2] (LAG4, after addition of D-Ala, 1 and 5 minutes) it was 25%; in experiment [2] (LAG4, after addition of D-Ala, 15-30 minutes), 40%. Moreover, the wt precursor in the experiment with S. coelicolor LAG2 (LAG2, 50 mM D-Ala, after 15 minutes) came to 4%; in the experiment on S. coelicolor LAG2 (LAG2, 50 mM D-Ala, within 1 minute), 1%. Also, in the experiment with S. coelicolor LAG2 (LAG2, 50 mM D-Ala, up to 180 minutes), the “wt precursor, maximum level” value is at most 5%.

In the case of `C[C@H](N)C(=O)O` [L-Ala], the “effect of L-Ala on the MIC of vancomycin” value in the experiment with S. coelicolor M145 is given as “not altered”. For the same compound, the “effect of L-Ala on the MIC for vancomycin” value in experiment [3] is given as “did not affect the MIC”. Besides, the “production of wt precursors” value in the experiment on S. coelicolor LAG2 (LAG2, 50 mM L-Ala (control)) is reported as “did not activate the production of detectable levels”.

Values taken from patent US20190000789A1, “COMPOSITION AND METHOD FOR TREATING INFECTIONS CAUSED BY VANCOMYCIN-RESISTANT INFECTIOUS AGENTS IN A SUBJECT” (priority 2015, published 2019).
